Experiment [1] concerns IL-17A-induced G-CSF production in human normal keratinocyte (NHK). Put plainly: NHK Assay: IL-17A-induced G-CSF production in human normal keratinocytes. In kind it is cell-based. The following applies: 24 h, adult normal human keratinocytes, IL-17A 5 ng/mL, simple average if tested more than once. In outline:
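G-CSF released by primary adult human keratinocytes after 24 h at 37° C was quantified by HTRF via standard curve to give IC50. Stimulus was 5 ng/mL IL-17A pre-mixed 1 h at rt with compound dilutions, in 5% FBS and 0.2% DMSO. Cell viability was assessed in parallel with CellTiter-Glo.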

Experiment [2] concerns the target IL-17A(FLAG-Tagged): IL-17RA(His-Tagged) (Homo sapiens, UniProt Q16552, K93Q). Put plainly: IL-17A(FLAG-Tagged): IL-17RA(His-Tagged) Binding Disruption Eu-HTRF Assay. The following applies: IL-17A/IL-17RA binding disruption, simple average if tested more than once. In outline:
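IC50 comes from a one-site competition fit of the HTRF 665/620 nm ratio. Compound dilutions (2-fold, 22 points) were held 1 h rt with FLAG-tagged IL-17A dimer, then His-tagged IL-17RA plus Eu-cryptate anti-FLAG and D2 anti-His antibodies were added for 2 h rt.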
On the technique in general: In TR-FRET formats the signal depends on donor and acceptor labels being close together.

Among the data in patent US11702422B2, “Imidazopyridazines as modulators of IL-17” (Janssen Pharmaceutica NV, priority 2020, dated 2023) are IC50 values, retold here.

Chain of UniProt Q16552 (Q16552 with tags, fused parts or gaps K93Q): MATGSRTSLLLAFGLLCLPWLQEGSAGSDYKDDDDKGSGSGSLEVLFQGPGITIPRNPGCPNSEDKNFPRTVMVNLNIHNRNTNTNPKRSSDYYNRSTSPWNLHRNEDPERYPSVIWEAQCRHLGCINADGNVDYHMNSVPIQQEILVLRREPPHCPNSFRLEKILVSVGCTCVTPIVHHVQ

In the case of `CCC(NC(=O)CC1CC(F)(F)C1)c1cnn2cc([C@@H](NC(=O)c3ccnn3C(C)C)C3CCC(F)(F)CC3)nc2c1` (single isomer, unassigned) [Example 520, N—((S)-(7-((S*)-1-(2-(3,3-Difluorocyclobutyl)acetamido)propyl)imidazo[1,2-b]pyridazin-2-yl)(4,4-difluorocyclohexyl)methyl)-1-isopropyl-1H-pyrazole-5-carboxamide], the 50% inhibitory concentration (IC50) (usually the concentration needed to halve the response being measured) in experiment [1] (Homo sapiens, Keratinocyte) came to 5000 nM; in experiment [2], 660 nM.
For the compound `[2H]C([2H])([2H])C([2H])([2H])n1nccc1C(=O)N[C@H](c1cn2ncc(C(COC)NC(=O)CC3CC(F)(F)C3)cc2n1)C1CCC(F)(F)CC1` (single isomer, unassigned) [Example 522, N—((S)-(7-((S*)-1-(2-(3,3-Difluorocyclobutyl)acetamido)-2-methoxyethyl)imidazo[1,2-b]pyridazin-2-yl)(4,4-difluorocyclohexyl)methyl)-1-(ethyl-d5)-1H-pyrazole-5-carboxamide], the IC50 came out at 3600 nM in experiment [1] and 2200 nM in experiment [2].
Take `[2H]C([2H])([2H])C([2H])([2H])n1nccc1C(=O)N[C@H](c1cn2ncc(C(COC)NC(=O)CC3CC(F)(F)C3)cc2n1)C1CCC(F)(F)CC1` (single isomer, unassigned) [Example 523, N—((S)-(7-((R*)-1-(2-(3,3-Difluorocyclobutyl)acetamido)-2-methoxyethyl)imidazo[1,2-b]pyridazin-2-yl)(4,4-difluorocyclohexyl)methyl)-1-(ethyl-d5)-1H-pyrazole-5-carboxamide]: the results for the IC50 in experiment [1] and in experiment [2] were 110 nM and 270 nM, respectively.
Regarding `COCC(NC(=O)CC1CC(F)(F)C1)c1cnn2cc([C@@H](NC(=O)c3nonc3C3CC3)C3CCC(F)(F)CC3)nc2c1` (single isomer, unassigned) [Example 524, 4-Cyclopropyl-N—((S)-(7-((S*)-1-(2-(3,3-difluorocyclobutyl)acetamido)-2-methoxyethyl)imidazo[1,2-b]pyridazin-2-yl)(4,4-difluorocyclohexyl)methyl)-1,2,5-oxadiazole-3-carboxamide], the IC50 in experiment [1] came out at 3700 nM; in experiment [2], 380 nM.
Regarding `COCC(NC(=O)CC1CC(F)(F)C1)c1cnn2cc([C@@H](NC(=O)c3nonc3C3CC3)C3CCC(F)(F)CC3)nc2c1` (single isomer, unassigned) [Example 525, 4-Cyclopropyl-N—((S)-(7-((R*)-1-(2-(3,3-difluorocyclobutyl)acetamido)-2-methoxyethyl)imidazo[1,2-b]pyridazin-2-yl)(4,4-difluorocyclohexyl)methyl)-1,2,5-oxadiazole-3-carboxamide], the results for the 50% inhibitory concentration (IC50) in experiment [1] and in experiment [2] were 42 nM and 59 nM, respectively.
With `CCOCC(NC(=O)CC1CC(F)(F)C1)c1cnn2cc([C@@H](NC(=O)c3nonc3C3CC3)C3CCC(F)(F)CC3)nc2c1` (single isomer, unassigned) [Example 526, 4-Cyclopropyl-N—((S)-(7-((S*)-1-(2-(3,3-difluorocyclobutyl)acetamido)-2-ethoxyethyl)imidazo[1,2-b]pyridazin-2-yl)(4,4-difluorocyclohexyl)methyl)-1,2,5-oxadiazole-3-carboxamide], the IC50 turned out to be 1200 nM in experiment [1] and 320 nM in experiment [2].
`CCOCC(NC(=O)CC1CC(F)(F)C1)c1cnn2cc([C@@H](NC(=O)c3nonc3C3CC3)C3CCC(F)(F)CC3)nc2c1` (single isomer, unassigned) [Example 527, 4-Cyclopropyl-N—((S)-(7-((R*)-1-(2-(3,3-difluorocyclobutyl)acetamido)-2-ethoxyethyl)imidazo[1,2-b]pyridazin-2-yl)(4,4-difluorocyclohexyl)methyl)-1,2,5-oxadiazole-3-carboxamide]: the IC50 worked out at 110 nM in experiment [1] and 57 nM in experiment [2].
For the compound `CCOCC(NC(=O)CC1CC(F)(F)C1)c1cnn2cc([C@@H](NC(=O)c3ccnn3C(C)C)C3CCC(F)(F)CC3)nc2c1` (single isomer, unassigned) [Example 528, N—((S)-(7-((R*)-1-(2-(3,3-Difluorocyclobutyl)acetamido)-2-ethoxyethyl)imidazo[1,2-b]pyridazin-2-yl)(4,4-difluorocyclohexyl)methyl)-1-isopropyl-1H-pyrazole-5-carboxamide], the IC50 came to 2400 nM in experiment [1] and 900 nM in experiment [2].
The matching figures for `CCOCC(NC(=O)CC1CC(F)(F)C1)c1cnn2cc([C@@H](NC(=O)c3ccnn3C(C)C)C3CCC(F)(F)CC3)nc2c1` (single isomer, unassigned) [Example 529, N—((S)-(7-((S*)-1-(2-(3,3-Difluorocyclobutyl)acetamido)-2-ethoxyethyl)imidazo[1,2-b]pyridazin-2-yl)(4,4-difluorocyclohexyl)methyl)-1-isopropyl-1H-pyrazole-5-carboxamide]: 120 nM and 340 nM.
In the case of `[2H]C([2H])([2H])C([2H])([2H])n1nccc1C(=O)N[C@H](c1cn2ncc(C(COCC)NC(=O)CC3CC(F)(F)C3)cc2n1)C1CCC(F)(F)CC1` (single isomer, unassigned) [Example 530, N—((S)-(7-((R*)-1-(2-(3,3-Difluorocyclobutyl)acetamido)-2-ethoxyethyl)imidazo[1,2-b]pyridazin-2-yl)(4,4-difluorocyclohexyl)methyl)-1-(ethyl-d5)-1H-pyrazole-5-carboxamide], the 50% inhibitory concentration (IC50) in experiment [1] was 4600 nM; in experiment [2] it was 980 nM.
On to `[2H]C([2H])([2H])C([2H])([2H])n1nccc1C(=O)N[C@H](c1cn2ncc(C(COCC)NC(=O)CC3CC(F)(F)C3)cc2n1)C1CCC(F)(F)CC1` (single isomer, unassigned) [Example 531, N—((S)-(7-((S*)-1-(2-(3,3-Difluorocyclobutyl)acetamido)-2-ethoxyethyl)imidazo[1,2-b]pyridazin-2-yl)(4,4-difluorocyclohexyl)methyl)-1-(ethyl-d5)-1H-pyrazole-5-carboxamide], for which the IC50 in experiment [1] was 110 nM; in experiment [2], 220 nM.
On the same counts, the results for `CC(C)n1nccc1C(=O)N[C@H](c1cn2ncc(C(CO)NC(=O)CC3CC(F)(F)C3)cc2n1)C1CCC(F)(F)CC1` (single isomer, unassigned) [Example 532, N—((S)-(7-((R*)-1-(2-(3,3-Difluorocyclobutyl)acetamido)-2-hydroxyethyl)imidazo[1,2-b]pyridazin-2-yl)(4,4-difluorocyclohexyl)methyl)-1-isopropyl-1H-pyrazole-5-carboxamide] are 2800 nM and 1500 nM.
For the compound `CC(C)n1nccc1C(=O)N[C@H](c1cn2ncc(C(CO)NC(=O)CC3CC(F)(F)C3)cc2n1)C1CCC(F)(F)CC1` (single isomer, unassigned) [Example 533, N—((S)-(7-((S*)-1-(2-(3,3-Difluorocyclobutyl)acetamido)-2-hydroxyethyl)imidazo[1,2-b]pyridazin-2-yl)(4,4-difluorocyclohexyl)methyl)-1-isopropyl-1H-pyrazole-5-carboxamide], the half-maximal inhibitory concentration (IC50) came to 150 nM in experiment [1] and 480 nM in experiment [2].
Take `Cc1nonc1C(=O)N[C@H](c1cn2ncc(C(NC(=O)CC3CC(F)(F)C3)C3CCOCC3)cc2n1)C1CCC(F)(F)CC1` (single isomer, unassigned) [Example 534, N—((S)-(7-((R*)-1-(2-(3,3-Difluorocyclobutyl)acetamido)(tetrahydro-2H-pyran-4-yl)methyl)imidazo[1,2-b]pyridazin-2-yl)(4,4-difluorocyclohexyl)methyl)-4-methyl-1,2,5-oxadiazole-3-carboxamide]: the half-inhibitory concentration (IC50) was 70 nM in experiment [1] (Homo sapiens, Keratinocyte) and 96 nM in experiment [2].
Take `CC(C)n1nccc1C(=O)N[C@H](c1cn2ncc(C(NC(=O)CC3CC(F)(F)C3)C3CCOCC3)cc2n1)C1CCC(F)(F)CC1` (single isomer, unassigned) [Example 535, N—((S)-(7-((R*)-1-(2-(3,3-Difluorocyclobutyl)acetamido)(tetrahydro-2H-pyran-4-yl)methyl)imidazo[1,2-b]pyridazin-2-yl)(4,4-difluorocyclohexyl)methyl)-1-isopropyl-1H-pyrazole-5-carboxamide]: the IC50 came out at 89 nM in experiment [1] (Homo sapiens, Keratinocyte) and 440 nM in experiment [2].
In the case of `COCC(NC(=O)CC1CC(F)(F)C1)c1cnn2cc([C@H](COC(C)(C)C(F)(F)F)NC(=O)c3nonc3C3CC3)nc2c1` (single isomer, unassigned) [Example 538, 4-Cyclopropyl-N—((R)-1-(7-((S*)-1-(2-(3,3-difluorocyclobutyl)acetamido)-2-methoxyethyl)imidazo[1,2-b]pyridazin-2-yl)-2-((1,1,1-trifluoro-2-methylpropan-2-yl)oxy)ethyl)-1,2,5-oxadiazole-3-carboxamide], the IC50 in experiment [1] (Homo sapiens, Keratinocyte) was determined as 80 nM; in experiment [2], 24 nM.
Consider `COCC(NC(=O)CC1CC(F)(F)C1)c1cnn2cc([C@H](COC(C)(C)C(F)(F)F)NC(=O)c3ccnn3C(C)C)nc2c1` (single isomer, unassigned) [Example 539, N—((R)-1-(7-((S*)-1-(2-(3,3-Difluorocyclobutyl)acetamido)-2-methoxyethyl)imidazo[1,2-b]pyridazin-2-yl)-2-((1,1,1-trifluoro-2-methylpropan-2-yl)oxy)ethyl)-1-isopropyl-1H-pyrazole-5-carboxamide], for which the 50% inhibitory concentration (IC50) in experiment [1] (Homo sapiens, Keratinocyte) stood at 78 nM; in experiment [2], 130 nM.
